Key:
[1] = AUC in rat at 10 mg/kg, po; format: ADME, organism-based; set-up: dose 10 mg/kg, route po; details: in vivo
[2] = Half life in dog at 1 mg/kg, iv; format: ADME, organism-based, Canis lupus familiaris; details: in vivo
[3] = Half life in rat at 1 mg/kg, iv; format: ADME, organism-based; details: in vivo
[4] = Clearance in dog at 1 mg/kg, iv; format: ADME, organism-based, Canis lupus familiaris; details: in vivo
[5] = Clearance in rat at 2 mg/kg, iv; format: ADME, organism-based; details: in vivo
[6] = tested on: Human immunodeficiency virus 1; assay: Ratio of EC50 for antiviral activity against darunavir-resistant HIV1 20P to EC50 for antiviral activity against wild type HIV1 ERS104pre; format: functional
[7] = tested on: Human immunodeficiency virus 1; assay: Ratio of EC50 for antiviral activity against HIV1-B to EC50 for antiviral activity against wild type HIV1 ERS104pre; format: functional
[8] = tested on: Human immunodeficiency virus 1; assay: Antiviral activity against multidrug-resistant HIV1-JSL infected in phytohemagglutinin-activated human PBMC cells assessed as inhibition of virus-induced cytopathic effect measured after 7 days by MTT assay; format: functional, organism-based; details: Human immunodeficiency virus 1, JSL, 168 h
[9] = tested on: Human immunodeficiency virus 1; assay: Ratio of EC50 for antiviral activity against HIV1-JSL to EC50 for antiviral activity against wild type HIV1 ERS104pre; format: functional
[10] = tested on: Human immunodeficiency virus 1; assay: Ratio of EC50 for antiviral activity against HIV1-TM to EC50 for antiviral activity against wild type HIV1 ERS104pre; format: functional
[11] = tested on: Human immunodeficiency virus 1; assay: Antiviral activity against multidrug-resistant HIV1-MM infected in phytohemagglutinin-activated human PBMC cells assessed as inhibition of virus-induced cytopathic effect measured after 7 days by MTT assay; format: functional, organism-based; details: Human immunodeficiency virus 1, MM, 168 h
[12] = tested on: Human immunodeficiency virus 1; assay: Antiviral activity against darunavir-resistant HIV1 20P infected in phytohemagglutinin-activated human PBMC cells assessed as inhibition of virus-induced cytopathic effect measured after 7 days by MTT assay; format: functional, organism-based; details: Human immunodeficiency virus 1, 20P, 168 h
[13] = tested on: Human immunodeficiency virus 1; assay: Antiviral activity against multidrug-resistant HIV1-C infected in phytohemagglutinin-activated human PBMC cells assessed as inhibition of virus-induced cytopathic effect measured after 7 days by MTT assay; format: functional, organism-based; details: Human immunodeficiency virus 1, C, 168 h
[14] = tested on: Human immunodeficiency virus 1; assay: Ratio of EC50 for antiviral activity against HIV1-G to EC50 for antiviral activity against wild type HIV1 ERS104pre; format: functional
[15] = tested on: Human immunodeficiency virus 1; assay: Antiviral activity against multidrug-resistant HIV1-B infected in phytohemagglutinin-activated human PBMC cells assessed as inhibition of virus-induced cytopathic effect measured after 7 days by MTT assay; format: functional, organism-based; details: Human immunodeficiency virus 1, B, 168 h
[16] = tested on: Human immunodeficiency virus 1; assay: Antiviral activity against wild type HIV1 ERS104pre infected in human PBMC cells assessed as inhibition of virus-induced cytopathic effect measured after 7 days by MTT assay; format: functional, organism-based; details: Human immunodeficiency virus 1, ERS104pre, 168 h
[17] = tested on: Human immunodeficiency virus 1; assay: Ratio of EC50 for antiviral activity against HIV1-MM to EC50 for antiviral activity against wild type HIV1 ERS104pre; format: functional
[18] = tested on: Human immunodeficiency virus 1; assay: Antiviral activity against darunavir-resistant HIV1 10P infected in phytohemagglutinin-activated human PBMC cells assessed as inhibition of virus-induced cytopathic effect measured after 7 days by MTT assay; format: functional, organism-based; details: Human immunodeficiency virus 1, 10P, 168 h
[19] = tested on: Human immunodeficiency virus 1; assay: Antiviral activity against multidrug-resistant HIV1-TM infected in phytohemagglutinin-activated human PBMC cells assessed as inhibition of virus-induced cytopathic effect measured after 7 days by MTT assay; format: functional, organism-based; details: Human immunodeficiency virus 1, TM, 168 h
[20] = molecular target: T1, Human immunodeficiency virus type 1 protease (Human immunodeficiency virus 1, UniProt Q72874); assay: Binding affinity to HIV1 protease assessed as inhibition constant
[21] = tested on: Human immunodeficiency virus 1; assay: Antiviral activity against multidrug-resistant HIV1-G infected in phytohemagglutinin-activated human PBMC cells assessed as inhibition of virus-induced cytopathic effect measured after 7 days by MTT assay; format: functional, organism-based; details: Human immunodeficiency virus 1, G, 168 h
[22] = tested on: Human immunodeficiency virus 1; assay: Ratio of EC50 for antiviral activity against darunavir-resistant HIV1 10P to EC50 for antiviral activity against wild type HIV1 ERS104pre; format: functional
[23] = tested on: Human immunodeficiency virus 1; assay: Ratio of EC50 for antiviral activity against HIV1-C to EC50 for antiviral activity against wild type HIV1 ERS104pre; format: functional
[24] = molecular target: T1, Human immunodeficiency virus type 1 protease; assay: Binding affinity to wild-type HIV1 protease expressed in Escherichia coli BL21(DE3) assessed as inhibition constant using (2-aminobenzoyl)Thr-Ile-Nle-(p-nitro)Phe-Gln-Arg peptide as substrate preincubated for 15 mins followed by substrate addition by fluorimeter analysis
[25] = tested on: Human immunodeficiency virus 1; assay: Ratio of EC50 for antiviral activity against HIV1-T21217 to EC50 for antiviral activity against wild type HIV1 r13205; format: functional
[26] = tested on: Human immunodeficiency virus 1; assay: Ratio of EC50 for antiviral activity against HIV1-T13717 to EC50 for antiviral activity against wild type HIV1 r13205; format: functional
[27] = tested on: Human immunodeficiency virus 1; assay: Antiviral activity against HIV1 T13572 infected in human MT4 cells expressing LTR and EGFP assessed as inhibition of virus-induced cytopathic effect by fluorescence microscopic analysis; format: functional, organism-based; details: Human immunodeficiency virus 1, T13572, MT4
[28] = tested on: Human immunodeficiency virus 1; assay: Ratio of EC50 for antiviral activity against HIV1-T13572 to EC50 for antiviral activity against wild type HIV1 r13205; format: functional
[29] = tested on: Human immunodeficiency virus 1; assay: Antiviral activity against HIV1 T13436 infected in human MT4 cells expressing LTR and EGFP assessed as inhibition of virus-induced cytopathic effect by fluorescence microscopic analysis; format: functional, organism-based; details: Human immunodeficiency virus 1, T13436, MT4
[30] = tested on: Human immunodeficiency virus 1; assay: Antiviral activity against HIV1 T21217 infected in human MT4 cells expressing LTR and EGFP assessed as inhibition of virus-induced cytopathic effect by fluorescence microscopic analysis; format: functional, organism-based; details: Human immunodeficiency virus 1, T21217, MT4
[31] = tested on: Human immunodeficiency virus 1; assay: Antiviral activity against HIV1 T13632 infected in human MT4 cells expressing LTR and EGFP assessed as inhibition of virus-induced cytopathic effect by fluorescence microscopic analysis; format: functional, organism-based; details: Human immunodeficiency virus 1, T13632, MT4
[32] = tested on: Human immunodeficiency virus 1; assay: Ratio of EC50 for antiviral activity against HIV1-T13436 to EC50 for antiviral activity against wild type HIV1 r13205; format: functional
[33] = tested on: Human immunodeficiency virus 1; assay: Ratio of EC50 for antiviral activity against HIV1-T13632 to EC50 for antiviral activity against wild type HIV1 r13205; format: functional
[34] = tested on: Human immunodeficiency virus 1; assay: Antiviral activity against HIV1 T21055 infected in human MT4 cells expressing LTR and EGFP assessed as inhibition of virus-induced cytopathic effect by fluorescence microscopic analysis; format: functional, organism-based; details: Human immunodeficiency virus 1, T21055, MT4
[35] = Lipophilicity, logP of the compound in Octanol/water by shake-flask method; format: physicochemical
[36] = tested on: Human immunodeficiency virus 1; assay: Antiviral activity against HIV1 T13717 infected in human MT4 cells expressing LTR and EGFP assessed as inhibition of virus-induced cytopathic effect by fluorescence microscopic analysis; format: functional, organism-based; details: Human immunodeficiency virus 1, T13717, MT4
[37] = tested on: Human immunodeficiency virus 1; assay: Ratio of EC50 for antiviral activity against HIV1-T21055 to EC50 for antiviral activity against wild type HIV1 r13205; format: functional
[38] = tested on: Human immunodeficiency virus 1; assay: Ratio of EC50 for antiviral activity against HIV1-T20760 to EC50 for antiviral activity against wild type HIV1 r13205; format: functional
[39] = tested on: Human immunodeficiency virus 1; assay: Antiviral activity against HIV1 T20760 infected in human MT4 cells expressing LTR and EGFP assessed as inhibition of virus-induced cytopathic effect by fluorescence microscopic analysis; format: functional, organism-based; details: Human immunodeficiency virus 1, T20760, MT4
[40] = Lipophilicity, logD of the compound in Octanol/buffer by shake-flask method; format: physicochemical
[41] = tested on: Human immunodeficiency virus 1; assay: Antiviral activity against wild type HIV1 r13205 infected in human MT4 cells expressing LTR and EGFP assessed as inhibition of virus-induced cytopathic effect by fluorescence microscopic analysis; format: functional, organism-based; details: Human immunodeficiency virus 1, r13205, MT4
[42] = tested on: Human immunodeficiency virus 1; assay: Antiviral activity against HIV1 LAI infected in human MT2 cells assessed as inhibition of virus-induced cytopathic effect by MTT assay; format: functional, organism-based; details: Human immunodeficiency virus 1, LAI
[43] = Cytotoxicity against human MT2 cells assessed as reduction in cell viability by MTT assay; format: toxicity, cell-based
[44] = Apparent permeability in rat astrocytes/rat pericytes/monkey endothelial cells triple cell co-culture system incubated for 30 mins by spectrophotometric analysis; format: ADME, cell-based
[45] = Selectivity index, ratio of CC50 for human MT2 cells to IC50 for antiviral activity against HIV1 LAI; format: toxicity; details: read-out: Ratio CC50/EC50
[46] = molecular target: T1, Human immunodeficiency virus type 1 protease; assay: Binding affinity to HIV1 recombinant wild type protease expressed in Escherichia coli BL21(DE3) assessed as inhibition constant

SMILES	Ratio EC50 [6]	Ratio EC50 [7]	EC50 [8]	Ratio EC50 [9]	Ratio EC50 [10]	EC50 [11]	EC50 [12]	EC50 [13]	Ratio EC50 [14]	EC50 [15]	EC50 [16]	Ratio EC50 [17]	EC50 [18]	EC50 [19]	Ki [20]	EC50 [21]	Ratio EC50 [22]	Ratio EC50 [23]	logP [35]	logD [40]	also measured
CC[C@@H](CCC[C@@H](CO)N(CCC(C)C)S(=O)(=O)c1ccc(N)cc1)NC(=O)[C@@H](NC(=O)OC)C(c1ccccc1)c1ccccc1	–	–	–	–	–	–	–	–	–	–	–	–	–	–	–	–	–	–	–	–	AUC [1]: 1.17 µM·h; half-life [2]: 7.4 h; half-life [3]: 2.13 h; clearance [4]: 10.1 mL/min/kg; clearance [5]: 48.5 mL/min/kg
COc1ccc(S(=O)(=O)N(CC(C)C)C[C@@H](O)[C@H](Cc2ccccc2)NC(=O)O[C@H]2CO[C@H]3O[C@@H]4OCC[C@@H]4[C@H]32)cc1	50	6	2.5 nM	4	4	2.5 nM	30 nM	0.8 nM	4	3.4 nM	0.6 nM	4	5.6 nM	2.1 nM	0.0059 nM	2.6 nM	9	1	–	–	–
COc1ccc(S(=O)(=O)N(CC(C)C)C[C@@H](O)[C@H](Cc2ccc(OCP(=O)(O)O)cc2)NC(=O)O[C@H]2CO[C@H]3OCC[C@H]32)cc1	–	–	–	–	–	–	–	–	–	–	–	–	–	–	–	–	–	–	–	–	Ki [24]: 0.0133 nM
CC(C)CN(C[C@@H](O)[C@H](Cc1ccccc1)NC(=O)O[C@H]1CO[C@H]2OCC[C@H]21)S(=O)(=O)c1ccc(N)cc1	64	7	> 25 nM	6	1	10 nM	255 nM	5 nM	2	21 nM	3.8 nM	3	43.4 nM	4.3 nM	–	7 nM	11	2	-0.63	-1.03	Ratio EC50 [25]: 3.8; Ratio EC50 [26]: 30; EC50 [27]: 234 nM; Ratio EC50 [28]: 11; EC50 [29]: 49 nM; EC50 [30]: 84 nM; EC50 [31]: 624 nM; Ratio EC50 [32]: 2.2; Ratio EC50 [33]: 28; EC50 [34]: 122 nM; EC50 [36]: 670 nM; Ratio EC50 [37]: 5.5; Ratio EC50 [38]: 1.8; EC50 [39]: 39 nM; EC50 [41]: 22 nM
CC(C)CN(C[C@@H](O)[C@H](Cc1ccccc1)NC(=O)O[C@H]1CO[C@H]2OCC(F)(F)[C@H]21)S(=O)(=O)c1ccc(N)cc1	–	3	20 nM	7	2	3 nM	–	2 nM	2	11 nM	2.7 nM	1	–	4 nM	0.0058 nM	4 nM	–	1	-0.83	-1.01	EC50 [42]: 3 nM; CC50 [43]: 37000 nM; Papp at 0.5 h [44]: 47.8 ×10⁻⁶ cm/s; selectivity ratio [45]: 12300
CC(C)CN(C[C@@H](O)[C@H](Cc1ccccc1)NC(=O)O[C@H]1CO[C@H]2OCC[C@H]21)S(=O)(=O)c1ccc(C(N)=O)cc1	–	–	–	–	–	–	–	–	–	–	–	–	–	–	–	–	–	–	–	–	EC50 [42]: 93 nM; Ki [46]: 0.0089 nM
